Literature values as cited in patent publication US20070166367A1, “Adept or gdept producing acetaldehyde” (priority 2004, published 2007).

Biological target: T1, aldehyde dehydrogenase 1 (ALDH1) (Homo sapiens, UniProt P00352)
T1 sequence (P00352 1-501): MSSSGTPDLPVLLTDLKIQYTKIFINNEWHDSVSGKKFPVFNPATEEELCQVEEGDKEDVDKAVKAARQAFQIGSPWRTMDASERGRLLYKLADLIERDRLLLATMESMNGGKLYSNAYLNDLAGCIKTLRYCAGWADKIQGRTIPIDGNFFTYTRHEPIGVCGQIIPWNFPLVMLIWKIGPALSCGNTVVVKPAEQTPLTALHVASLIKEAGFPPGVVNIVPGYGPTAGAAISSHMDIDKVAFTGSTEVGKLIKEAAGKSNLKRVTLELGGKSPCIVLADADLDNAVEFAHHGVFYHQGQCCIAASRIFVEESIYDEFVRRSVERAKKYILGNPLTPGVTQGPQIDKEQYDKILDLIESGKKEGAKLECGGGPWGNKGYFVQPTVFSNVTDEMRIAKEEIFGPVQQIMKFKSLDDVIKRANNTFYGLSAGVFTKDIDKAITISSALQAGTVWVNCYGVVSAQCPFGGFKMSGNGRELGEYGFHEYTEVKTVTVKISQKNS
Conditions: cited from earlier work

In the case of `CC=O` [acetaldehyde], the Km is listed as 22 µM.
